According to PubChem BioAssay AID1259407 (Chemical Carcinogenesis Research Information System (CCRIS), 2018):
Active and inactive are the calls of the source. The rule behind the calls is not given here.

Tested on: CCRIS mutagenicity, Ames/micronucleus/aberration tests
Assay: CCRIS mutagenicity studies
[1] = Test System: AMES SALMONELLA TYPHIMURIUM, Strain/Indicator: TA98, Metabolic Activation: NONE, Method: PREINCUBATION
[2] = Test System: AMES SALMONELLA TYPHIMURIUM, Strain/Indicator: TA98, Metabolic Activation: RAT, LIVER, S-9, AROCLOR 1254 (10%), Method: PREINCUBATION
[3] = Test System: AMES SALMONELLA TYPHIMURIUM, Strain/Indicator: TA100, Metabolic Activation: NONE, Method: PREINCUBATION
[4] = Test System: AMES SALMONELLA TYPHIMURIUM, Strain/Indicator: TA100, Metabolic Activation: RAT, LIVER, S-9, AROCLOR 1254 (10%), Method: PREINCUBATION
[5] = Test System: AMES SALMONELLA TYPHIMURIUM, Strain/Indicator: TA1537, Metabolic Activation: NONE, Method: PREINCUBATION
[6] = Test System: AMES SALMONELLA TYPHIMURIUM, Strain/Indicator: TA102, Metabolic Activation: NONE, Method: PREINCUBATION

Question: For CCCCCCCC/C=C/CCCCCCCC(=O)OCCOCC(OCCO)C1OCC(OCCO)C1OCCO (stereo not given), which mutagenic call (Test System: AMES SALMONELLA TYPHIMURIUM, Strain/Indicator: TA98, Metabolic Activation: HAMSTER, LIVER, S-9, AROCLOR 1254 (10%), Method: PREINCUBATION) is on record?
Answer: inactive; negative

Question: And the mutagenic call [1]?
Answer: inactive; negative

Question: What about the mutagenic call [2] of the same compound?
Answer: inactive; negative

Question: And the mutagenic call (Test System: AMES SALMONELLA TYPHIMURIUM, Strain/Indicator: TA100, Metabolic Activation: HAMSTER, LIVER, S-9, AROCLOR 1254 (10%), Method: PREINCUBATION)?
Answer: inactive; negative

Question: What about the mutagenic call [3] of the same compound?
Answer: inactive; negative

Question: What about the mutagenic call [4] of the same compound?
Answer: inactive; negative

Question: And the mutagenic call (Test System: AMES SALMONELLA TYPHIMURIUM, Strain/Indicator: TA1535, Metabolic Activation: HAMSTER, LIVER, S-9, AROCLOR 1254 (10%), Method: PREINCUBATION)?
Answer: inactive; negative

Question: And the mutagenic call (Test System: AMES SALMONELLA TYPHIMURIUM, Strain/Indicator: TA1535, Metabolic Activation: NONE, Method: PREINCUBATION)?
Answer: inactive; negative

Question: And the mutagenic call (Test System: AMES SALMONELLA TYPHIMURIUM, Strain/Indicator: TA1535, Metabolic Activation: RAT, LIVER, S-9, AROCLOR 1254 (10%), Method: PREINCUBATION)?
Answer: inactive; negative

Question: And the mutagenic call (Test System: AMES SALMONELLA TYPHIMURIUM, Strain/Indicator: TA1537, Metabolic Activation: HAMSTER, LIVER, S-9, AROCLOR 1254 (10%), Method: PREINCUBATION)?
Answer: inactive; negative

Question: And the mutagenic call [5]?
Answer: inactive; negative

Question: And the mutagenic call (Test System: AMES SALMONELLA TYPHIMURIUM, Strain/Indicator: TA1537, Metabolic Activation: RAT, LIVER, S-9, AROCLOR 1254 (10%), Method: PREINCUBATION)?
Answer: inactive; negative

Question: How did the mutagenic call [1] turn out when O=Nc1c(O)ccc2ccccc12 was run?
Answer: inactive; negative

Question: What does the source list for OC[C@H]1O[C@@H](OC2[C@@H](CO)O[C@H](O)[C@H](O)[C@H]2O)[C@H](O)[C@@H](O)C1O[C@@H]1O[C@H](CO)[C@@H](O)[C@H](O)[C@H]1O (stereo not given in full)?
Answer: mutagenic call (End Point: IN VIVO CHROMOSOMAL ABERRATIONS, Test System: BONE MARROW CELLS, Species: MOUSE, Strain/Sex: CD-1, MALE, Route: IP): inactive; negative; mutagenic call (End Point: IN VIVO CHROMOSOMAL ABERRATIONS, Test System: SPERMATOGONIAL CELLS, Species: MOUSE, Strain/Sex: CD-1, MALE, Route: IP): inactive; negative

Question: How did the mutagenic call [1] turn out when O=C1c2ccccc2C(=O)c2c(O)cccc21 was run?
Answer: inactive; negative

Question: And the mutagenic call [2]?
Answer: inactive; negative

Question: What about the mutagenic call (Test System: AMES SALMONELLA TYPHIMURIUM, Strain/Indicator: TA98, Metabolic Activation: RAT, LIVER, S-9, AROCLOR 1254, Method: PREINCUBATION) of the same compound?
Answer: inactive; negative

Question: And the mutagenic call [3]?
Answer: inactive; negative

Question: What about the mutagenic call [4] of the same compound?
Answer: inactive; negative

Question: What about the mutagenic call (Test System: AMES SALMONELLA TYPHIMURIUM, Strain/Indicator: TA100, Metabolic Activation: RAT, LIVER, S-9, AROCLOR 1254, Method: PREINCUBATION) of the same compound?
Answer: inactive; negative

Question: What about the mutagenic call [6] of the same compound?
Answer: inactive; negative

Question: And the mutagenic call (Test System: AMES SALMONELLA TYPHIMURIUM, Strain/Indicator: TA102, Metabolic Activation: RAT, LIVER, S-9, AROCLOR 1254 (10%), Method: PREINCUBATION)?
Answer: inactive; negative

Question: And the mutagenic call [5]?
Answer: active; positive

Question: And the mutagenic call (Test System: AMES SALMONELLA TYPHIMURIUM, Strain/Indicator: TA1537, Metabolic Activation: RAT, LIVER, S-9, AROCLOR 1254, Method: PREINCUBATION)?
Answer: active; positive

Question: What about the mutagenic call (Test System: UDS RODENT HEPATOCYTES, Strain/Indicator: THY INCORP, Metabolic Activation: NONE) of the same compound?
Answer: active; positive

Question: What does the source list for CCCNNCCC?
Answer: mutagenic call (Test System: AMES SALMONELLA TYPHIMURIUM, Strain/Indicator: TA100, Metabolic Activation: NONE, Method: PREINCUBATION (11 HR GROWTH PERIOD FOR BACTERIA)): active; positive; mutagenic call (Test System: AMES SALMONELLA TYPHIMURIUM, Strain/Indicator: TA100, Metabolic Activation: RAT, LIVER, S-9, PCB, Method: PREINCUBATION (11 HR GROWTH PERIOD FOR BACTERIA)): inactive; negative; mutagenic call (Test System: AMES SALMONELLA TYPHIMURIUM, Strain/Indicator: TA102, Metabolic Activation: NONE, Method: PREINCUBATION (5 OR 7 HR GROWTH PERIOD FOR BACTERIA)): active; positive; mutagenic call (Test System: AMES SALMONELLA TYPHIMURIUM, Strain/Indicator: TA102, Metabolic Activation: RAT, LIVER, S-9, PCB, Method: PREINCUBATION (5 OR 7 HR GROWTH PERIOD FOR BACTERIA)): active; positive

Question: What does the source list for COc1cc(NCCCCCNC(C)C)c2ncccc2c1?
Answer: mutagenic call (Test System: AMES SALMONELLA TYPHIMURIUM, Strain/Indicator: TA97, Metabolic Activation: NONE, Method: PREINCUBATION): inactive; negative; mutagenic call (Test System: AMES SALMONELLA TYPHIMURIUM, Strain/Indicator: TA97, Metabolic Activation: RAT, LIVER, S-9, PHENOBARBITAL AND BETA-NAPHTHOFLAVONE, Method: PREINCUBATION): active; positive; mutagenic call [1]: inactive; negative; mutagenic call (Test System: AMES SALMONELLA TYPHIMURIUM, Strain/Indicator: TA98, Metabolic Activation: RAT, LIVER, S-9, PHENOBARBITAL AND BETA-NAPHTHOFLAVONE, Method: PREINCUBATION): inactive; negative; mutagenic call [3]: inactive; negative; mutagenic call (Test System: AMES SALMONELLA TYPHIMURIUM, Strain/Indicator: TA100, Metabolic Activation: RAT, LIVER, S-9, PHENOBARBITAL AND BETA-NAPHTHOFLAVONE, Method: PREINCUBATION): inactive; negative; mutagenic call [6]: inactive; negative; mutagenic call (Test System: AMES SALMONELLA TYPHIMURIUM, Strain/Indicator: TA102, Metabolic Activation: RAT, LIVER, S-9, PHENOBARBITAL AND BETA-NAPHTHOFLAVONE, Method: PREINCUBATION): inactive; negative; mutagenic call (Test System: E.COLI, Strain/Indicator: WP2UVRA/PKM101, Metabolic Activation: NONE, Method: PREINCUBATION): inactive; negative; mutagenic call (Test System: E.COLI, Strain/Indicator: WP2UVRA/PKM101, Metabolic Activation: RAT LIVER S-9, PHENOBARBITAL AND 5,6-BENZOFLAVONE, Method: PREINCUBATION): inactive; negative
